Drawing on patent EP1146864B1, “PH INDEPENDENT EXTENDED RELEASE PHARMACEUTICAL FORMULATION” (ABBOTT LABORATORIES, priority 1999, dated 2000), this text covers solubility and elimination half-life for 2 compounds.

For data set [1] the following is noted: in children; cited from earlier work.

`CCCC(CCC)C(=O)O` [Divalproex sodium, sodium hydrogen divalproate]: the solubility in “physchem” (pH 1, simulated gastric fluid) was 1 mg/mL; in the data set “physchem” (pH 4.7, aqueous buffer) it was 2 mg/mL; in the data set “physchem” (pH 4.84, aqueous buffer), 3.4 mg/mL; in “physchem” (pH 5.87, aqueous buffer) it was 21 mg/mL; in “physchem” (pH 6.17, aqueous buffer) it was 36 mg/mL; in the data set “physchem” (pH 6.7, aqueous buffer), 200 mg/mL.

For the compound `CCCC(CCC)C(=O)O` [valproic acid, 2-propylpentanoic acid], the elimination half-life entry in data set [1] was “four and fourteen”.

As usually defined, the solubility is the dissolved amount per volume that the medium holds. The low end stands for a poorly soluble substance, the high end for a readily soluble substance.
